Experimental data published in PubChem BioAssay (NCI).
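Following 48 hours of exposure in 96-well plates, responses at five concentrations were used to interpolate endpoints linearly. TGI: concentration producing complete growth inhibition.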

Key:
Assay in all cases: NCI anticancer screen, dose series, 48 h
A498 renal = tested on: A498 renal
ACHN renal = tested on: ACHN renal
BT-549 breast = tested on: BT-549 breast
COLO 205 colon = tested on: COLO 205 colon
EKVX NSCLC = tested on: EKVX NSCLC
LOX IMVI melanoma = tested on: LOX IMVI melanoma
M14 melanoma = tested on: M14 melanoma
MCF7 breast = tested on: MCF7 breast
MDA-MB-435 = tested on: MDA-MB-435
MDA-N = tested on: MDA-N
OVCAR-3 ovarian = tested on: OVCAR-3 ovarian
SW-620 colon = tested on: SW-620 colon
UACC-62 melanoma = tested on: UACC-62 melanoma
HCC-2998 colon = tested on: HCC-2998 colon

SMILES | TGI (A498 renal) | TGI (ACHN renal) | TGI (BT-549 breast) | TGI (COLO 205 colon) | TGI (EKVX NSCLC) | TGI (LOX IMVI melanoma) | TGI (M14 melanoma) | TGI (MCF7 breast) | TGI (MDA-MB-435) | TGI (MDA-N) | TGI (OVCAR-3 ovarian) | TGI (SW-620 colon) | TGI (UACC-62 melanoma) | TGI (HCC-2998 colon)
Nc1ccc(Oc2ccc(C34CC5C6CC7(c8ccc(Oc9ccc(N)cc9)cc8)CC5C(C3)C(C7)C6C4)cc2)cc1 | > 100 µM | > 100 µM | > 100 µM | > 100 µM | > 100 µM | > 100 µM | > 100 µM | > 100 µM | > 100 µM | > 100 µM | > 100 µM | > 100 µM | > 100 µM | 
O=C(c1ccccc1)c1ccc(N2C(=O)/C(=C/c3ccccc3S)N=C2c2ccccc2)c(N2C(=O)/C(=C/c3ccccc3S)N=C2c2ccccc2)c1 | > 100 µM | > 100 µM | > 100 µM | > 100 µM | > 100 µM | 62.9 µM | > 100 µM | > 100 µM | 46.1 µM | > 100 µM | 51.2 µM | > 100 µM | > 100 µM | > 100 µM
O=C1c2cc3c(cc2[C@@H]2C(O)[C@H]4O[C@H]4C4CCN1C42)OCO3 (some centres undefined) |  | > 37.5 µM |  | > 37.5 µM | > 37.5 µM | > 37.5 µM | > 37.5 µM |  |  |  | > 37.5 µM | > 37.5 µM | > 37.5 µM | > 37.5 µM
Cc1nn(CNc2ccc(F)c(Cl)c2)c(=S)n1/N=C/c1ccc(-c2ccc(Cl)cc2Cl)o1 | 30.3 µM | 30.7 µM |  |  | 42.6 µM | 44.9 µM | 36.9 µM | 37.3 µM | 39 µM | 33.5 µM | 33.1 µM | 29.2 µM |  | 
C=C1N(C)c2ccc(S(=O)(=O)c3ccc4c(c3)C(C)(C)C(=C)N4C)cc2C1(C)C | > 100 µM | > 100 µM | 87.9 µM | 29.8 µM | > 100 µM |  | > 100 µM | > 100 µM | > 100 µM | > 100 µM | > 100 µM | > 100 µM | > 100 µM | > 100 µM
O=P1(Oc2ccc(Cl)cc2Cl)Oc2cc3ccccc3cc2O1 | > 90.5 µM |  |  | > 100 µM | > 100 µM | > 100 µM |  | > 74.4 µM |  |  | > 60.7 µM | > 100 µM | > 100 µM | 59.6 µM
Cc1csc2nc(-c3cc([N+](=O)[O-])c(Cl)cc3Cl)c(/C=N/N=C(N)N)n12 | 35 µM | 30.9 µM | 29.5 µM | 36.8 µM | 38.2 µM | 33.1 µM | 34.3 µM | 37.5 µM | 34.7 µM |  | 43.6 µM | 32.5 µM | 27.2 µM | 22.1 µM
Nc1ccc(-c2nc3ccccc3s2)cc1CO | > 100 µM | > 100 µM | > 100 µM | > 100 µM | > 49.2 µM | > 100 µM | > 100 µM |  | > 100 µM | > 100 µM | > 100 µM | > 100 µM | > 100 µM | > 100 µM
